The target of the first test is CK2A1 (CK2α/β) (Homo sapiens, UniProt P68400). The test is described as follows: CK2 kinase assay, CK2A1 (CK2α/β). To be noted: CK2A1 (CK2α/β) (IC50, nM), Table A. It is filed as biochemical.
Chain of CK2A1 (CK2α/β) (P68400 whole entry, species assumed): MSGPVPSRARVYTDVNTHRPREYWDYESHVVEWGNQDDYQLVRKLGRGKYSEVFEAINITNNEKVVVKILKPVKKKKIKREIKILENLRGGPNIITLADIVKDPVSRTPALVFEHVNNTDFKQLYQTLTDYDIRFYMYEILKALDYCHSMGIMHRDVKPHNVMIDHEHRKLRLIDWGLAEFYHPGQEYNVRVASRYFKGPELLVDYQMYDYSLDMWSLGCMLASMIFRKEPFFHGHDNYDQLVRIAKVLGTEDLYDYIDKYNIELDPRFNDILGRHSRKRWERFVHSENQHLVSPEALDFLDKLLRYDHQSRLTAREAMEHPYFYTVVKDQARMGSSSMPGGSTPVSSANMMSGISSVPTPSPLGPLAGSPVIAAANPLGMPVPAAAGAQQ
Chain of CK2A1 (CK2α/β) (P67870 whole entry partner, species assumed): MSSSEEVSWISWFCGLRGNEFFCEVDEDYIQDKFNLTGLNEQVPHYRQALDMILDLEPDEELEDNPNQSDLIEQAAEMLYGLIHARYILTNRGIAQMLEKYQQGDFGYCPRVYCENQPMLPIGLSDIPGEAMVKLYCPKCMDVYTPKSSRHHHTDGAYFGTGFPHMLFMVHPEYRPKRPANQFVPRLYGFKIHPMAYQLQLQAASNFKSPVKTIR
Procedure: For example, in vitro protein kinase assays may be conducted with a relevant purified protein kinase and an appropriate synthetic substrate to determine the inhibitory activity of the compounds. […] Reaction mixtures were incubated at 30° C. for 1 hour, and reaction products were captured by binding to phosphocellulose (P81) filter plates. Incorporation of radioactive phosphate into the peptide substrate was determined by liquid scintillation counting.
The inhibitory activity of the instant compounds may also be measured by recombinant CK2 holoenzyme kinase assays. The assays were performed in U-bottom 384-well plates. […] The reaction was initiated by the combination of bacterially expressed, CK2 α/β or CK2 holoenzyme with substrates and test compounds. The reaction was incubated at room temperature for 60 minutes and terminated by adding 30 μl of 35 mM EDTA to each sample. The reaction mixture was analyzed on the Caliper LABCHIP® 3000 (Caliper, Hopkinton, Mass.) by electrophoretic separation of the fluorescent substrate and phosphorylated product. […] Compounds were dissolved at 10 mM in dimethylsulfoxide (DMSO) and evaluated at eleven concentrations. IC50 values were derived by non-linear regression analysis.
With `CCNc1nc(Nc2cc(C#N)cc(N3CC[C@@H](NC(=O)OC)[C@H](OC(=O)Cc4ccc(OP(=O)(O)O)cc4)C3)c2Cl)nn2c(C#N)cnc12` [Example 344, (3R,4R)-1-(2-chloro-5-cyano-3-((7-cyano-4-(ethylamino)imidazo[2,1-f][1,2,4]triazin-2-yl)amino)phenyl)-4-((methoxycarbonyl)amino)piperidin-3-yl 2-(4-(phosphonooxy)phenyl)acetate], the IC50 came to 3 nM.

Still in this test, the particulars now being: Table A; read-out: CK2A1 (CK2α/β) (IC50).
Regarding `COC(=O)N1CC(N2CCC(c3cc(C#N)cc(Nc4nc(NC5CC5)c5ncc(C#N)n5n4)c3Cl)CC2)C1` [Example 320, methyl 3-(4-(2-chloro-5-cyano-3-((7-cyano-4-(cyclopropylamino)imidazo[2,1-f][1,2,4]triazin-2-yl)amino)phenyl)piperidin-1-yl)azetidine-1-carboxy], the IC50 was found to be 0.35 nM.

Regarding `CS(=O)(=O)N1CC(N2CCC(c3cc(C#N)cc(Nc4nc(NC5CC5)c5ncc(C#N)n5n4)c3Cl)CC2)C1` [Example 321, 2-((2-chloro-5-cyano-3-(1-(1-(methylsulfonyl)azetidin-3-yl)piperidin-4-yl)phenyl)amino)-4-(cyclopropylamino)imidazo[2,1-f][1,2,4]triazine-7-carbonitrile], the IC50 was determined as 0.66 nM.

Regarding `C[C@H](O)CN1CC(N2CCC(c3cc(C#N)cc(Nc4nc(NC5CC5)c5ncc(C#N)n5n4)c3Cl)CC2)C1` [Example 322, 2-((2-chloro-5-cyano-3-(1-(1-((2S)-2-hydroxypropyl)-3-azetidinyl)-4-piperidinyl)phenyl)amino)-4-(cyclopropylamino)imidazo [2,1-f][1,2,4]triazine-7-carbonitrile], the IC50 worked out at 1.78 nM.

For `N#Cc1cc(Nc2nc(NC3CC3)c3ncc(C#N)n3n2)c(Cl)c(C2CCN(C3CN(CC4CC4)C3)CC2)c1` [Example 323, 2-((2-chloro-5-cyano-3-(1-(1-(cyclopropylmethyl)-3-azetidinyl)-4-piperidinyl)phenyl)amino)-4-(cyclopropylamino)imidazo [2,1-f][1,2,4]triazine-7-carbonitrile], the IC50 stood at 0.59 nM.

In the case of `CC(C)(O)CN1CC(N2CCC(c3cc(C#N)cc(Nc4nc(NC5CC5)c5ncc(C#N)n5n4)c3Cl)CC2)C1` [Example 324, 2-((2-chloro-5-cyano-3-(1-(1-(2-hydroxy-2-methylpropyl)-3-azetidinyl)-4-piperidinyl)phenyl)amino)-4-(cyclopropylamino)imidazo [2,1-f][1,2,4]triazine-7-carbonitrile], the IC50 is 0.78 nM.

Take `COCCN1CC(N2CCC(c3cc(C#N)cc(Nc4nc(NC5CC5)c5ncc(C#N)n5n4)c3Cl)CC2)C1` [Example 325, 2-((2-chloro-5-cyano-3-(1-(1-(2-methoxyethyl)-3-azetidinyl)-4-piperidinyl)phenyl)amino)-4-(cyclopropylamino)imidazo [2,1-f][1,2,4]triazine-7-carbonitrile]: the IC50 came to 0.57 nM.

As to `CCNc1nc(Nc2cc(C#N)cc(N3CCC(N)CC3)c2Cl)nn2c(C#N)cnc12` [Example 329, 2-((3-(4-aminopiperidin-1-yl)-2-chloro-5-cyanophenyl)amino)-4-(ethylamino)imidazo[2,1-f][1,2,4]triazine-7-carbonitrile], the IC50 stood at 0.34 nM.

Consider `CCNc1nc(Nc2cc(C#N)cc(N3CCC(NC(=O)OC)CC3)c2Cl)nn2c(C#N)cnc12` [Example 330, methyl (1-(2-chloro-5-cyano-3-((7-cyano-4-(ethylamino)imidazo[2,1-f][1,2,4]triazin-2-yl)amino)phenyl)piperidin-4-yl)carbamate], for which the IC50 was found to be 0.55 nM.

Turning to `CCNc1nc(Nc2cc(C#N)cc(N3CC[C@H](NC(=O)OC)[C@H](F)C3)c2Cl)nn2c(C#N)cnc12` [Example 331, methyl ((3R,4S)-1-(2-chloro-5-cyano-3-((7-cyano-4-(ethylamino)imidazo[2,1-f][1,2,4]triazin-2-yl)amino)phenyl)-3-fluoro-4-piperidinyl)carbamate], the IC50 turned out to be 2.32 nM.

`CCNc1nc(Nc2cc(C#N)cc(N3CC[C@@H](NC(=O)OCC)[C@H](O)C3)c2Cl)nn2c(C#N)cnc12` [Example 332, ethyl ((3R,4R)-1-(2-chloro-5-cyano-3-((7-cyano-4-(ethylamino)imidazo[2,1-f][1,2,4]triazin-2-yl)amino)phenyl)-3-hydroxypiperidin-4-yl)carbamate]: the IC50 came to 0.41 nM.

Regarding `CCNc1nc(Nc2cc(C#N)cc(N3C[C@H](NC(=O)OC)[C@@H](OC)C3)c2Cl)nn2c(C#N)cnc12` [Example 333, methyl ((3S,4S)-1-(2-chloro-5-cyano-3-((7-cyano-4-(ethylamino)imidazo [2,1-f][1,2,4]triazin-2-yl)amino)phenyl)-4-methoxy-3-pyrrolidinyl)carbamate], the IC50 stood at 0.46 nM.

As for `CCNc1nc(Nc2cc(C#N)cc(N3C[C@H](NC(=O)OC)[C@H](OC)C3)c2Cl)nn2c(C#N)cnc12` [Example 334, methyl ((3S,4R)-1-(2-chloro-5-cyano-3-((7-cyano-4-(ethylamino)imidazo[2,1-f][1,2,4]triazin-2-yl)amino)phenyl)-4-methoxy-3-pyrrolidinyl)carbamate], the IC50 was 1.1 nM.

Take `CCNc1nc(Nc2cc(C#N)cc(N3C[C@@H](C)[C@@H](NC(=O)OC)C3)c2Cl)nn2c(C#N)cnc12` [Example 335, methyl ((3R,4R)-1-(2-chloro-5-cyano-3-((7-cyano-4-(ethylamino)imidazo[2,1-f][1,2,4]triazin-2-yl)amino)phenyl)-4-methyl-3-pyrrolidinyl)carbamate]: the IC50 came out at 3.97 nM.

For `CCNc1nc(Nc2cc(C#N)cc(N3CC[C@@H](NC(=O)OC)[C@H](OP(=O)(O)O)C3)c2Cl)nn2c(C#N)cnc12` [Example 337, methyl ((3R,4R)-1-(2-chloro-5-cyano-3-((7-cyano-4-(ethylamino)imidazo[2,1-f][1,2,4]triazin-2-yl)amino)phenyl)-3-(phosphonooxy)piperidin-4-yl)carbamate], the IC50 was 16 nM.

As to `CCNc1nc(Nc2cc(C#N)cc(N3CC[C@H](NC(=O)OC)[C@@H](OP(=O)(O)O)C3)c2Cl)nn2c(C#N)cnc12` [Example 338, methyl ((3S,4S)-1-(2-chloro-5-cyano-3-((7-cyano-4-(ethylamino)imidazo[2,1-f][1,2,4]triazin-2-yl)amino)phenyl)-3-(phosphonooxy)-4-piperidinyl)carbamate], the IC50 was determined as 0.82 nM.

`CCNc1nc(Nc2cc(C#N)cc(N3CC[C@@H](NC(=O)OC)[C@H](OC(=O)[C@H](C)OP(=O)(O)O)C3)c2Cl)nn2c(C#N)cnc12` [Example 340, (S)-(3R,4R)-1-(2-chloro-5-cyano-3-((7-cyano-4-(ethylamino)imidazo[2,1-f][1,2,4]triazin-2-yl)amino)phenyl)-4-((methoxycarbonyl)amino)piperidin-3-yl 2-(phosphonooxy)propanoate]: the IC50 was determined as 6 nM.

Consider `CCNc1nc(Nc2cc(C#N)cc(N3CC[C@@H](NC(=O)OC)[C@H](OC(=O)[C@H](C)O)C3)c2Cl)nn2c(C#N)cnc12` [Example 341, (S)-(3R,4R)-1-(2-chloro-5-cyano-3-((7-cyano-4-(ethylamino)imidazo[2,1-f][1,2,4]triazin-2-yl)amino)phenyl)-4-((methoxycarbonyl)amino)piperidin-3-yl 2-hydroxypropanoate], for which the IC50 came to 1 nM.

Turning to `CCNc1nc(Nc2cc(C#N)cc(N3CC[C@@H](NC(=O)OC)[C@H](OC(=O)[C@@H](C)OP(=O)(O)O)C3)c2Cl)nn2c(C#N)cnc12` [Example 342, (R)-(3R,4R)-1-(2-chloro-5-cyano-3-((7-cyano-4-(ethylamino)imidazo[2,1-f][1,2,4]triazin-2-yl)amino)phenyl)-4-((methoxycarbonyl)amino)piperidin-3-yl 2-(phosphonooxy)propanoate], the IC50 came to 0.37 nM.

As to `CCNc1nc(Nc2cc(C#N)cc(N3CC[C@@H](NC(=O)OC)[C@H](OC(=O)CCCOP(=O)(O)O)C3)c2Cl)nn2c(C#N)cnc12` [Example 343, (3R,4R)-1-(2-chloro-5-cyano-3-((7-cyano-4-(ethylamino)imidazo[2,1-f][1,2,4]triazin-2-yl)amino)phenyl)-4-((methoxycarbonyl)amino)piperidin-3-yl 4-(phosphonooxy)butanoate], the IC50 worked out at 3 nM.

Turning to `CCNc1nc(Nc2cc(C#N)cc(N3CC[C@@H](NC(=O)OC)[C@H](OCOP(=O)(O)O)C3)c2Cl)nn2c(C#N)cnc12` [Example 345, sodium (((3R,4R)-1-(2-chloro-5-cyano-3-((7-cyano-4-(ethylamino)imidazo[2,1-f][1,2,4]triazin-2-yl)amino)phenyl)-4-((methoxycarbonyl)amino)piperidin-3-yl)oxy)methyl phosphate], the IC50 came out at 0.8 nM.

Regarding `CCNc1nc(Nc2cc(C#N)cc(N3CC[C@@H](NC(=O)OC)[C@H](OC(=O)[C@@H](N)C(C)C)C3)c2Cl)nn2c(C#N)cnc12` [Example 346, (S)-(3R,4R)-1-(2-chloro-5-cyano-3-((7-cyano-4-(ethylamino)imidazo[2,1-f][1,2,4]triazin-2-yl)amino)phenyl)-4-((methoxycarbonyl)amino)piperidin-3-yl 2-amino-3-methylbutanoate], the IC50 was 2.03 nM.

With `CCNc1nc(Nc2cc(C#N)cc(C3CCN(C4COC4)CC3)c2Cl)nn2c(C#N)cnc12` [Example 349, 2-((2-chloro-5-cyano-3-(1-(oxetan-3-yl)piperidin-4-yl)phenyl)amino)-4-(ethylamino)imidazo[2,1-f][1,2,4]triazine-7-carbonitrile], the IC50 stood at 2.75 nM.

For the molecule `[2H]C1(N2CCC(c3cc(C#N)cc(Nc4nc(NCC)c5ncc(C#N)n5n4)c3Cl)CC2)COC1` [Example 350, 2-((2-chloro-5-cyano-3-(1-(3-~2~H)-3-oxetanyl-4-piperidinyl)phenyl)amino)-4-(ethylamino)imidazo[2,1-f][1,2,4]triazine-7-carbonitrile], the IC50 turned out to be 1.74 nM.

`CCNc1nc(Nc2cc(C#N)cc(C3CCN(C)CC3)c2Cl)nn2c(C#N)cnc12` [Example 351, 2-((2-chloro-5-cyano-3-(1-methyl-4-piperidinyl)phenyl)amino)-4-(ethylamino)imidazo[2,1-f][1,2,4]triazine-7-carbonitrile]: the IC50 stood at 0.88 nM.

These data come from US9273057B2 (Bristol-Myers Squibb Company, priority 2012, dated 2016).
